Test results reported in patent US9732070B2, “Protein kinase C inhibitors and uses thereof” (Rigel Pharmaceuticals, Inc., priority 2009, dated 2017).

Each compound was assayed on Human primary T cells (assay: IL-2 ELISA, human primary T cell, anti-CD3+CD28 stimulation). Conditions: IL-2 quantified by ELISA; human primary T cells stimulated with αCD3 and αCD28, 24 hours.
Type: cell-based
Method: Human primary T cell isolation and culture: Human primary T cells were prepared as follows. Whole blood was obtained from a healthy volunteer, mixed 1:1 with PBS, layered on to Ficoll Hypaque (Amersham Pharmacia Biotech, Piscataway, N.J., Catalog #17-1440-03) in 2:1 blood/PBS:ficoll ratio and centrifuged for 30 minutes at 4° C. at 1750 rpm. The cells at the serum: ficoll interface were recovered and washed twice with 5 volumes of PBS. These freshly isolated human peripheral blood mononuclear cells were cultured in Yssel's medium containing 40 U/mL IL2 in a flask pre-coated with 1 μg/mL αCD3 and 5 μg/mL αCD28 (Anti-Human CD3, BD Pharmingen Catalog #555336, Anti-Human CD28, Beckman Coulter Catalog #IM1376). The cells were stimulated for 3-4 days, then transferred to a fresh flask and maintained in RPMI (RPMI-1640 with L-Glutamine; Mediatech, Inc., Herndon Va., cat. #10-040-CM) with 10% FBS and 40 U/mL IL-2. The primary T-cells were then washed twice with PBS to remove the IL-2.
Primary T cell stimulation and IL2 ELISA: Human primary T cells (100,000 cells per well) were pre-incubated with or without test compound in Yssel's medium for 1 hour at 37° C. Cells were then stimulated by transferring them to round-bottom 96-well plates pre-coated with 1 μg/ml αCD3 and 5 μg/ml αCD28. For counter assay, cells were instead stimulated by adding 8× stock solutions of PMA and ionomycin in Yssels (for final concentrations of 0.5 ng/ml PMA and 0.1 uM ionomycin, both from Calbiochem). Cells were incubated at 37° C. for 24 hours before 100 μL supernatants were harvested for quantification of IL-2 by ELISA using Human IL-2 Duoset ELISA Kit from R and D Systems, Cat. # DY202E.

| IC50 | Compound |
| --- | --- |
| 0.51 to 2.99 µM | CC1(C)CC(Nc2nc(Nc3ccc(F)c(-n4nnn(CCF)c4=O)c3)ncc2F)CC(C)(C)N1 [I-7, 5-fluoro-n2-{4-fluoro-3-[4-(2-fluoroethyl)-1,2,3,4-tetrazol-5-one-1-yl]}phenyl-n4-(2,2,6,6-tetramethylpiperidin-4-yl)-2,4-pyrimidinediamine] |
| < 0.5 µM | CC(C)Oc1ccc(Nc2ncc(F)c(NC3CC(C)(C)N(C)C(C)(C)C3)n2)cc1-n1nnn(C)c1=O [I-10, 5-fluoro-n2-{4-isopropoxy-[3-(4-methyl)-1,2,3,4-tetrazol-5-one-1-yl]}phenyl-n4-(1,2,2,6,6-pentamethylpiperidin-4-yl)-2,4-pyrimidinediamine] |
| < 0.5 µM | CC(C)Oc1ccc(Nc2ncc(F)c(NC3CC(C)(C)NC(C)(C)C3)n2)cc1-n1nnn(C)c1=O [I-11, 5-fluoro-n2-{4-isopropoxy-[3-(4-methyl)-1,2,3,4-tetrazol-5-one-1-yl]}phenyl-n4-(2,2,6,6-tetramethylpiperidin-4-yl)-2,4-pyrimidinediamine] |
| < 0.5 µM | CN1C(C)(C)CC(Nc2nc(Nc3cc(F)cc(-n4nnn(C)c4=O)c3)ncc2F)CC1(C)C [I-22, 1-(3-(4-(1,2,2,6,6-pentamethylpiperidin-4-ylamion)-5fluoropyrimidin-2-ylamino)-5-fluorophenyl)-4-methyl-1H-tetrazol-5(4H)-one] |

Same assay, conditions: T-cell; IL-2 quantified by ELISA; human primary T cells stimulated with αCD3 and αCD28, 24 hours

| Compound | IC50 |
| --- | --- |
| CN1C(C)(C)CC(Nc2nc(Nc3ccc(F)c(-n4nn[nH]c4=O)c3)ncc2F)CC1(C)C [I-1, 5-fluoro-n2-{4-fluoro-[3-(4-h)-1,2,3,4-tetrazol-5-one-1-yl]}phenyl-n4-(1,2,2,6,6-pentamethylpiperidin-4-yl)-2,4-pyrimidinediamine] | 3 to 25 µM |
| CC1(C)CC(Nc2nc(Nc3ccc(F)c(-n4nn[nH]c4=O)c3)ncc2F)CC(C)(C)N1 [I-2, 5-fluoro-n2-{4-fluoro-[3-(4-h)-1,2,3,4-tetrazol-5-one-1-yl]}phenyl-n4-(2,2,6,6-tetramethylpiperidin-4-yl)-2,4-pyrimidinediamine] | > 25 µM |
| CC(C)n1nnn(-c2cc(Nc3ncc(F)c(NC4CC(C)(C)N(C)C(C)(C)C4)n3)ccc2F)c1=O [I-5, 5-fluoro-n2-{4-fluoro-[3-(4-isopropyl)-1,2,3,4-tetrazol-5-one-1-yl]}phenyl-n4-(1,2,2,6,6-pentamethylpiperidin-4-yl)-2,4-pyrimidinediamine] | 0.51 to 2.99 µM |
| CC(C)n1nnn(-c2cc(Nc3ncc(F)c(NC4CC(C)(C)NC(C)(C)C4)n3)ccc2F)c1=O [I-6] | 0.51 to 2.99 µM |
| CN1C(C)(C)CC(Nc2nc(Nc3cccc(-n4nnn(C)c4=O)c3)ncc2F)CC1(C)C [I-12, 5-fluoro-n2-[3-(4-methyl)-1,2,3,4-tetrazol-5-one-1-yl]phenyl-n4-(1,2,2,6,6-pentamethylpiperidin-4-yl)-2,4-pyrimidinediamine] | 0.51 to 2.99 µM |
| Cn1nnn(-c2cccc(Nc3ncc(F)c(NC4CC(C)(C)NC(C)(C)C4)n3)c2)c1=O [I-13] | 0.51 to 2.99 µM |
| CN1C(C)(C)CC(Nc2nc(Nc3ccc(OC4COC4)c(-n4nnn(C)c4=O)c3)ncc2F)CC1(C)C [I-20, 1-(5-(4-(1,2,2,6,6-pentamethylpiperidin-4-ylamino)-5fluoropyrimidine-2-ylamino)-2-(oxetan-3-yloxy)phenyl)-4-methyl-1H-tetrazol-5(4H)-one] | < 0.5 µM |
| Cn1nnn(-c2cc(Nc3ncc(F)c(NC4CC(C)(C)NC(C)(C)C4)n3)ccc2OC2COC2)c1=O [I-21, 1-(5-(4-(2,2,6,6-gtetramethylpiperidin-4-ylamino)-5-fluoropyrimidin-2-ylamino)-2-(oxetan-3-yloxy)phenyl)-4-methyl-1H-tetrazol-5(4H)-one] | < 0.5 µM |
| Cn1nnn(-c2cc(F)cc(Nc3ncc(F)c(NC4CC(C)(C)NC(C)(C)C4)n3)c2)c1=O [I-23, 1-(3-(4-(2,2,6,6-tetramethylpiperidin-4-ylamino)-5-fluoropyrimidin-2-ylamino)-5-fluorophenyl)-4-methyl-1H-tetrazol-5(4H)-one] | < 0.5 µM |
| CN1C(C)(C)CC(Nc2nc(Nc3cc(OC4COC4)cc(-n4nnn(C)c4=O)c3)ncc2F)CC1(C)C [I-24, 1-(3-(4-(1,2,2,6,6-pentamethylpiperidin-4-ylamino)-5-fluoropyrimidin-2-ylamino)-5-(oxetan-3-yloxy)phenyl)-4-methyl-1H-tetrazol-5(4H)-one] | < 0.5 µM |
| Cn1nnn(-c2cc(Nc3ncc(F)c(NC4CC(C)(C)NC(C)(C)C4)n3)cc(OC3COC3)c2)c1=O [I-25, 1-(3-(4-(2,2,6,6-tetramethylpiperidin-4-ylamino)-5-fluoropyrimidin-2-ylamino)-5-(oxetan-3-yloxy)phenyl)-4-methyl-1H-tetrazol-5(4H)-one] | < 0.5 µM |
| CN1C(C)(C)CC(Nc2nc(Nc3ccc(OC4CCOCC4)c(-n4nnn(C)c4=O)c3)ncc2F)CC1(C)C [I-26] | < 0.5 µM |
| Cn1nnn(-c2cc(Nc3ncc(F)c(NC4CC(C)(C)NC(C)(C)C4)n3)ccc2OC2CCOCC2)c1=O [I-27, N2-{4-(tetrahydropyran-4-yloxy)-[3-(4-methyl)-1,2,3,4-tetrazol-5-one-1-yl]}phenyl-5-fluoro-N4-(2,2,6,6-tetramethylpyridin-4-yl)-2,4-pyrimidinediamine] | < 0.5 µM |
| Cn1nnn(-c2cc(Nc3ncc(F)c(NC4CC(C)(C)NC(C)(C)C4)n3)ccc2OCC2(C)COC2)c1=O [I-28, 5-fluoro-N2-{4-(3-methyloxetan-3-yl)methody-3-[(4-methyl)-1,2,3,4-tetrazol-5-one-1-yl]}phenyl-N4-(2,2,6,6-tetramethylpiperidin-4-yl)-2,4pyrimidinediamine] | < 0.5 µM |
| CN1C(C)(C)CC(Nc2nc(Nc3ccc(Cl)c(-n4nnn(C)c4=O)c3)ncc2F)CC1(C)C [I-29, N2-{4-chloro-[3-(4-methyl)-1,2,3,4-tetrazol-5-one-1-yl]}phenyl-5-fluoro-N4-(1,2,2,6,6-pentamethylpiperidin-4-yl)-2,4-pyrimidinediamine] | < 0.5 µM |

Continued, values first:

| IC50 | Compound |
| --- | --- |
| < 0.5 µM | CN1C(C)(C)CC(Nc2nc(Nc3ccc(F)c(-n4nnn(C)c4=O)c3)ncc2F)CC1(C)C [I-3, 5-fluoro-n2-{4-fluoro-[3-(4-methyl)-1,2,3,4-tetrazol-5-one-1-yl]}phenyl-n4-(1,2,2,6,6-pentamethylpiperidin-4-yl)-2,4-pyrimidinediamine] |
| < 0.5 µM | Cn1nnn(-c2cc(Nc3ncc(F)c(NC4CC(C)(C)NC(C)(C)C4)n3)ccc2F)c1=O [I-4] |
| < 0.5 µM | Cc1ccc(Nc2ncc(F)c(NC3CC(C)(C)N(C)C(C)(C)C3)n2)cc1-n1nnn(C)c1=O [I-8, 5-fluoro-n2-{4-methyl-[3-(4-methyl)-1,2,3,4-tetrazol-5-one-1-yl]}phenyl-n4-(1,2,2,6,6-pentamethylpiperidin-4-yl)-2,4-pyrimidinediamine] |
| < 0.5 µM | Cc1ccc(Nc2ncc(F)c(NC3CC(C)(C)NC(C)(C)C3)n2)cc1-n1nnn(C)c1=O [I-9, 5-fluoro-n2-{4-methyl-[3-(4-methyl)-1,2,3,4-tetrazol-5-one-1-yl]}phenyl-n4-(2,2,6,6-tetramethylpiperidin-4-yl)-2,4-pyrimidinediamine] |
| < 0.5 µM | Cn1nnn(-c2cc(Nc3ncc(F)c(NC4CC(C)(C)NC(C)(C)C4)n3)c(F)cc2C2CC2)c1=O [I-14] |
| < 0.5 µM | Cn1nnn(-c2cc(Nc3ncc(C#N)c(NC4CC(C)(C)NC(C)(C)C4)n3)c(F)cc2C2CC2)c1=O [I-15, 5-cyano-N2-{4-cyclopropyl-6-fluoro[3-(4-methyl)-1,2,3,4-tetrazol-5-one-1-yl]}phenyl-N4-(2,2,6,6-tetramethylpiperidin-4-yl)-2,4-pyrimidineamine] |
| < 0.5 µM | CN1C(C)(C)CC(Nc2nc(Nc3cc(-n4nnn(C)c4=O)c(C4CC4)cc3F)ncc2F)CC1(C)C [I-16, N2-{4-cyclopropyl-6-fluoro-[3-(4-methyl)-1,2,3,4-tetrazol-5-one-1-yl]}phenyl-5-fluoro-N4-(1,2,2,6,6-pentamethylpiperidin-4-yl)-2,4-pyrimidineamine] |
| < 0.5 µM | CN1C(C)(C)CC(Nc2nc(Nc3cc(-n4nnn(C)c4=O)c(C4CC4)cc3F)ncc2C#N)CC1(C)C [I-17, 5-cyano-N2-{4-cyclopropyl-6-fluoro-[3-(4-methyl)-1,2,3,4-tetrazol-5-one-1-yl]}phenyl-N4-(1,2,2,6,6-pentamethylpiperidin-4-yl)-2,4-pyrimidinediamine] |
| < 0.5 µM | CN1C(C)(C)CC(Nc2nc(Nc3ccc(OC(C)(C)C(F)(F)F)c(-n4nnn(C)c4=O)c3)ncc2F)CC1(C)C [I-18, 1-(2-(1,1,1-trifluoro-2-methylpropan-2-yloxy)-5-(4-(1,2,2,6,6-pentamethylpiperidin-4-ylamino)-5-fluoropyrimidin-2-ylamino)phenyl)-4-methyl-1H-tetrazol-5(4H)-one] |
| < 0.5 µM | Cn1nnn(-c2cc(Nc3ncc(F)c(NC4CC(C)(C)NC(C)(C)C4)n3)ccc2OC(C)(C)C(F)(F)F)c1=O [I-19, 1-(2-(1,1,1-trifluoro-2-methylpropan-2-yloxy)-5-(4-(2,2,6,6-tetramethylpiperidin-4-ylamino)-5-fluoropyrimidin-2-ylamino)phenyl)-4-methyl-1H-tetrazol-5(4H)-one] |
